Assay results as given in ChEMBL document CHEMBL4673218, “Kojyl cinnamate esters are peroxisome proliferator-activated receptor α/γ dual agonists” (Bioorg Med Chem, 2018).
Activity calls are given as the source filed them. The calls are words filed in the database; no cut-off is given here.

Key:
[1] = target: T1, PPAR alpha/gamma (Homo sapiens) (UniProt P37231+Q07869); test: Agonist activity at PPARalpha/PPARgamma in human AT-MSC cells assessed as upregulation of FABP4 mRNA at 10 uM incubated for 3 days by qRT-PCR analysis; assay type: cell-based; details: Adipose tissue derived mesenchymal stem cell, filed as agonist, time 3.0 day
[2] = target: T2, Peroxisome proliferator-activated receptor alpha (Homo sapiens) (UniProt Q07869); test: (§1) Binding affinity to human recombinant PPARalpha by Cheng-Prusoff equation based competitive binding TR-FRET assay; details: filed as agonist
T2 sequence (whole entry): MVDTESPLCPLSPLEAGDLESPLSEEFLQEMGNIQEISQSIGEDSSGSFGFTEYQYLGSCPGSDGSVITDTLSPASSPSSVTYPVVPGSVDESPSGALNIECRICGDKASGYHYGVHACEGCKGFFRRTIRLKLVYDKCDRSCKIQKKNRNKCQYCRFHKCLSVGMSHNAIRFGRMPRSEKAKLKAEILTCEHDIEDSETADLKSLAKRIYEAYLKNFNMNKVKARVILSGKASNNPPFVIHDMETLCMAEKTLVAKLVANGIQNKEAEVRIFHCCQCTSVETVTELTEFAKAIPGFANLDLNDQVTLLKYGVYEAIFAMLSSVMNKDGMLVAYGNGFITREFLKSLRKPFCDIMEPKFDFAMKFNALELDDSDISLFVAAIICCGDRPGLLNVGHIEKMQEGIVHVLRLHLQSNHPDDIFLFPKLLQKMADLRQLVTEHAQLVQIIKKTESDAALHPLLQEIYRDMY

[3] = target: T3, Peroxisome proliferator-activated receptor alpha (Homo sapiens, UniProt Q07869); test: as §1
T3 sequence (Q07869 whole entry): T2 sequence (whole entry)

[4] = target: T4, Oxysterols receptor LXR-alpha (Homo sapiens) (UniProt Q13133); test: Binding affinity to human LXRalpha at 30 uM by competitive ligand binding based TR-FRET assay
T4 sequence (whole entry): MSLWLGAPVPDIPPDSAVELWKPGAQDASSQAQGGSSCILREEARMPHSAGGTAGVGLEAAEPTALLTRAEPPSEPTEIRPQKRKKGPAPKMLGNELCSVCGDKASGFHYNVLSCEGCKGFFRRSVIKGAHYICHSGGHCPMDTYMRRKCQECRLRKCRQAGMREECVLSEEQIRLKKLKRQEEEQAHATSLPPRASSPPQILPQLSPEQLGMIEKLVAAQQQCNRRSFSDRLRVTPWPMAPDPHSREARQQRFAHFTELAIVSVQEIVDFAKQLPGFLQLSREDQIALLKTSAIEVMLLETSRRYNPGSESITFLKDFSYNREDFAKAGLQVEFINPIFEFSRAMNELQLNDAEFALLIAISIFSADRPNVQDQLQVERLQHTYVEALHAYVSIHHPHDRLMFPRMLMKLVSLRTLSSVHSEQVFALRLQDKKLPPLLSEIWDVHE

[5] = target: T5, Peroxisome proliferator-activated receptor delta (Homo sapiens) (UniProt Q03181); test: Binding affinity to human recombinant PPARdelta at 30 uM by competitive binding based TR-FRET assay
T5 sequence (whole entry): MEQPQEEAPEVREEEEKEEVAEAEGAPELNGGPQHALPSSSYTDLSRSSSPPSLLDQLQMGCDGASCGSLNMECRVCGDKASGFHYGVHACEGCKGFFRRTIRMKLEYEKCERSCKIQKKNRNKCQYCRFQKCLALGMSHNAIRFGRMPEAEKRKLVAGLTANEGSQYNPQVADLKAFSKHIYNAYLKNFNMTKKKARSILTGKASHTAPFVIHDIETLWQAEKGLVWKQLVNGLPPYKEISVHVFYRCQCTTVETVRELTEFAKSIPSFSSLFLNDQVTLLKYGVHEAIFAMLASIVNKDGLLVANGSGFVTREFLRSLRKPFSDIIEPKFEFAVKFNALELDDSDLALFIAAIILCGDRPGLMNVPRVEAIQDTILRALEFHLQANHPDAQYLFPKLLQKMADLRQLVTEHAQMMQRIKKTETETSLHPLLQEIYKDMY

[6] = Induction of adipogenesis in human AT-MSC assessed as adiponectin secretion in IDX medium incubated for 5 days by ELISA; assay type: functional; details: adipose tissue derived mesenchymal stem cell
[7] = test system: Adipose tissue derived mesenchymal stem cell; test: Induction of adipogenesis in human AT-MSC cells assessed as increase in lipid droplet at 30 uM in IDX medium incubated for 5 days by Oil Red O staining based inverted phase microscopy relative to IDX control; assay type: functional; details: time 5.0 day
[8] = Induction of adipogenesis in human AT-MSC assessed as adiponectin secretion at 30 uM in IDX medium incubated for 5 days by ELISA relative to IDX control; assay type: functional, Adipose tissue derived mesenchymal stem cell; details: time 5 day
[9] = Induction of adipogenesis in human AT-MSC assessed as adiponectin secretion at 30 uM in IDX medium incubated for 5 days by ELISA (reference value: 100 +/- 15 pg/ml); assay type: functional, Adipose tissue derived mesenchymal stem cell; details: time 5 day
NHEK = test: Inhibition of UVB-induced MMP1 mRNA in human NHEK cells at 10 uM incubated for 24 hrs by qRT-PCR analysis; assay type: functional, cell-based
[10] = target: T1, PPAR alpha/gamma (Homo sapiens); test: Agonist activity at PPARalpha/PPARgamma in human NHEK cells assessed as upregulation of FASN mRNA at 10 uM incubated for 3 days by qRT-PCR analysis; assay type: cell-based; details: time 3.0 day
[11] = target: T1, PPAR alpha/gamma (Homo sapiens); test: Agonist activity at PPARalpha/PPARgamma in human NHEK cells assessed as upregulation of ACACB mRNA at 10 uM incubated for 3 days by qRT-PCR analysis; assay type: cell-based; details: time 3.0 day
[12] = target: T1, PPAR alpha/gamma (Homo sapiens); test: Agonist activity at PPARalpha/PPARgamma in human NHEK cells assessed as upregulation of HMGCR mRNA at 10 uM incubated for 3 days by qRT-PCR analysis; assay type: cell-based; details: time 3.0 day
[13] = target: T1, PPAR alpha/gamma (Homo sapiens); test: Agonist activity at PPARalpha/PPARgamma in human NHEK cells assessed as upregulation of SCD1 mRNA at 10 uM incubated for 3 days by qRT-PCR analysis; assay type: cell-based; details: filed as agonist, time 3.0 day
[14] = target: T1, PPAR alpha/gamma (Homo sapiens); test: Agonist activity at PPARalpha/PPARgamma in human NHEK cells assessed as upregulation of HMGCS2 mRNA at 10 uM incubated for 3 days by qRT-PCR analysis; assay type: cell-based; details: filed as agonist, time 3.0 day
[15] = target: T1, PPAR alpha/gamma (Homo sapiens); test: Agonist activity at PPARalpha/PPARgamma in human NHEK cells assessed as upregulation of FADS2 mRNA at 10 uM incubated for 3 days by qRT-PCR analysis; assay type: cell-based; details: filed as agonist, time 3.0 day
[16] = target: T1, PPAR alpha/gamma (Homo sapiens); test: Agonist activity at PPARalpha/PPARgamma in human AT-MSC cells assessed as upregulation of FADS2 mRNA at 10 uM incubated for 3 days by qRT-PCR analysis; assay type: cell-based; details: Adipose tissue derived mesenchymal stem cell, filed as agonist, time 3.0 day
[17] = target: T1, PPAR alpha/gamma (Homo sapiens); test: Agonist activity at PPARalpha/PPARgamma in human AT-MSC cells assessed as upregulation of HMGCS2 mRNA at 10 uM incubated for 3 days by qRT-PCR analysis; assay type: cell-based; details: Adipose tissue derived mesenchymal stem cell, filed as agonist, time 3.0 day

T1 sequence (P37231 whole entry, looked up, one chain of several): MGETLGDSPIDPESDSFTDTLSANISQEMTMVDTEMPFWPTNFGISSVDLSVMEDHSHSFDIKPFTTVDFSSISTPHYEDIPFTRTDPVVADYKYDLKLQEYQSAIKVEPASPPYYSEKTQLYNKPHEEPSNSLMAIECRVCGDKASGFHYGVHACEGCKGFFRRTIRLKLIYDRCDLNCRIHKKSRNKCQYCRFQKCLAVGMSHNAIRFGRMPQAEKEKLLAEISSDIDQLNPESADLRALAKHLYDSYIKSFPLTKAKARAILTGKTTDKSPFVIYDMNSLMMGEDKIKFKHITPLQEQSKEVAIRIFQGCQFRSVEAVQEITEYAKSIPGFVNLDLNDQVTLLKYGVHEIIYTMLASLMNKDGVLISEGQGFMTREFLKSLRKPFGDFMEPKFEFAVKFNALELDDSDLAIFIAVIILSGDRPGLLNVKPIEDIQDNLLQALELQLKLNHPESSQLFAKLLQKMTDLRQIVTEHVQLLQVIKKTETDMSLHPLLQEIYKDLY

Structure (SMILES): COc1ccc(OC)c(/C=C/C(=O)OCc2cc(=O)c(O)co2)c1
- Activity [1]: Active
- Activity [2]: Dose-dependent effect
- Ki [3]: 9.5 µM
- Activity [4]: inactive
- Activity [5]: inactive
- EC50 [6]: 7.6 µM
- Activity [7]: Active
- fold change (FC) [8]: 3.83
- Activity [9]: 383 pg/mL
- inhibition (NHEK): Active
- Activity [10]: inactive
- Activity [11]: inactive
- Activity [12]: inactive
- Activity [13]: Active
- Activity [14]: Active
- Activity [15]: Active
- Activity [16]: Active
- Activity [17]: Active
